According to patent US6664273B2, “Piperidine based MCH antagonists for treatment of obesity and CNS disorders” (Schering Corporation, priority 2001, dated 2003):

Target: T1, MCH receptor (Homo sapiens, UniProt Q99705)
T1 construct: expressed in transfected cells; host or cells: CHO cells
Test: MCH Receptor Binding Assay
Settings: [125I]-MCH, SPA, membranes from CHO cells expressing the MCH receptor
Procedure: Membranes from CHO cells expressing the MCH receptor were prepared by lysing cells with 5 mM HEPES for 15 min at 4C. Cell lysates were centrifuged ([…], 15 min) and the pellet was re-suspended in 5 mM HEPES. For each 96-well plate (Microlite, Dynex Technologies), 1 mg of cell membranes were incubated with 10 mg of wheat germ agglutinin SPA beads (Amersham) for 5 min at 4 C in a volume of 10 ml of binding buffer (25 mM HEPES, 10 mM MGCl2, 10 mM NaCl, 5 mM MnCl2, 0.1% BSA). The membrane/bead mixture was centrifuged (1500×g, 3.5 min), the supernatant was aspirated, and the pellet was re-suspended in 10 ml binding buffer. The centrifugation, aspiration and re-suspension were then repeated. The membrane/bead mixture (100 μl) was then added to 96-well plates containing 50 μl of 500 pM [^125I]-MCH (NEN) and […] of the appropriate concentration of compound (4× the desired final concentration). Nonspecific binding was determined by including 1 μM MCH in the binding reaction. The binding reaction was incubated at room temperature for 2 h. Plates were then analyzed in a TOPCOUNT microplate scintillation counter (Packard). Data was analyzed and Ki values were determined using GraphPad Prism.

T1 sequence (Q99705 whole entry): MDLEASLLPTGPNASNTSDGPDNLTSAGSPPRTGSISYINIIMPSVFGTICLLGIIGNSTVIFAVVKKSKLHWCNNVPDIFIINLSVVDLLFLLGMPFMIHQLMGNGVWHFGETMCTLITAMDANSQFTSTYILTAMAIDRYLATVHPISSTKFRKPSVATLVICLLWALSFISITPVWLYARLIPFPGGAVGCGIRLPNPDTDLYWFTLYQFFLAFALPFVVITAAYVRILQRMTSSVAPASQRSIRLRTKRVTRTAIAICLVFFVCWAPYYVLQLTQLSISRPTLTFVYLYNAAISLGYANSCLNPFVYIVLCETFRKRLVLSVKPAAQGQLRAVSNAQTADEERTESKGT

Structure (SMILES) | Ki [nM]
CN(CC(=O)Nc1cc(Cl)cc(Cl)c1)C1(c2ccc(-c3cccc(C#N)c3)cc2)CCN(C2CCCC2)CC1 | 8.6
COc1cccc(-c2ccc(C3(NCC(=O)Nc4ccc(F)c(Cl)c4)CCN(C4CCCC4)CC3)cc2)c1 | 77
CS(=O)(=O)c1ccc(CN2CCC(OCC(=O)Nc3cc(Cl)cc(Cl)c3)(c3ccc(-c4cccc(C#N)c4)cc3)CC2)cc1 | 76
